Reference: patent US5574061A, “Benzopyran derivative, process for producing the same and pharmaceutical composition containing the same” (priority 1990, dated 1996)

Tested on: serum cholesterol
Assay: Percentage change of serum cholesterol in rats fed a feed enriched with cholesterol and fat
Type: in vivo, male Wistar rats
Settings: Rattus norvegicus, po, 72 h; 1 mg/kg orally once a day for three days, Wistar rats, vs control
Description: Percentage change of serum cholesterol
Male Wistar rats having a weight of 200 g were preliminarily bred for 7 days while they freely ingested a normal feed (CE-2 manufactured by CLEA Japan Inc.).
Thereafter, they were bred for 3 days while they freely ingested a feed enriched with cholesterol and fat (2% cholesterol, 1% cholic acid, 20% casein, 45% fine granulated sugar, 12% coconut oil, 4% KC flock, 1% mixed vitamin, 7% mixed mineral and 8% dried fish powder; a product of CLEA Japan Inc.). […] On the other hand, the excipient alone was administered to the control animals.
8 hr after the last administration, the test animals were fasted. 16 hr after the initiation of the fasting, these test animals were slaughtered. The serum cholesterol level was measured for each animal.
The results were compared with those of the control and are given as percentage serum cholesterol (%) in Table 3.
Percentage change of serum cholesterol (%)={(A-B)/B}×100
wherein A represents the total cholesterol level of serum in the group of rats to which the test compound was administered; and B represents the total cholesterol level of serum in the control group of rats.

In order of falling change in vivo at 1 mg/kg:
1. COc1ccc2c(c1NC(=O)C(C)(C)CCCCCOc1ccc(Cl)cc1)OCCC2=O [Ex. 41]  -40%
2. COc1ccc2c(c1NC(=O)C(C)(C)CCCCCCOc1ccc(Cl)cc1)OCCC2=O [Ex. 42]  -51%

Same assay, conditions: Rattus norvegicus, po, 72 h; 3 mg/kg orally once a day for three days, Wistar rats, vs control

`COc1ccc2c(=O)ccoc2c1NC(=O)C(C)(C)CCCCCOc1ccc(Cl)cc1` [Ex. 52] was tested, and the change in vivo at 3 mg/kg was -17%.

Same assay, conditions: Rattus norvegicus, po, 72 h; 10 mg per kg orally once a day for three days, Wistar rats, vs control

In order of falling change in vivo at 10 mg/kg:
1. Cc1ccc2c(c1NC(=O)C(C)(C)CCCCCCOCCCC(C)C)OCCC2=O [Ex. 29]  -22%
2. CCCCCCCCCCC(C)(C)C(=O)Nc1c(C)ccc2c1OCCC2=O [Ex. 19]  -27%
3. CCCCCCCCCCC1(C(=O)Nc2c(OC)ccc3c(=O)ccoc23)CCCC1 [Ex. 50]  -27%
4. CCCCCCCCCCC1(C(=O)Nc2c(C)ccc3c2OCCC3=O)CCCC1 [Ex. 20]  -29%
5. Cc1ccc2c(c1NC(=O)C(C)(C)CCCCCCOCC(C)(C)C)OCCC2=O [Ex. 28]  -31%
6. Cc1ccc2c(c1NC(=O)C(C)(C)CCCCCc1ccccc1)OCCC2=O [Ex. 25]  -32%
7. Cc1ccc2c(c1NC(=O)C(C)(C)CCCCCOc1ccc(Cl)cc1)OCCC2=O [Ex. 32]  -33%

Target: T1, ACAT enzyme (rabbit intestinal mucosa microsome) (Oryctolagus cuniculus, UniProt G1SFD9)
T1 sequence (G1SFD9 1-524): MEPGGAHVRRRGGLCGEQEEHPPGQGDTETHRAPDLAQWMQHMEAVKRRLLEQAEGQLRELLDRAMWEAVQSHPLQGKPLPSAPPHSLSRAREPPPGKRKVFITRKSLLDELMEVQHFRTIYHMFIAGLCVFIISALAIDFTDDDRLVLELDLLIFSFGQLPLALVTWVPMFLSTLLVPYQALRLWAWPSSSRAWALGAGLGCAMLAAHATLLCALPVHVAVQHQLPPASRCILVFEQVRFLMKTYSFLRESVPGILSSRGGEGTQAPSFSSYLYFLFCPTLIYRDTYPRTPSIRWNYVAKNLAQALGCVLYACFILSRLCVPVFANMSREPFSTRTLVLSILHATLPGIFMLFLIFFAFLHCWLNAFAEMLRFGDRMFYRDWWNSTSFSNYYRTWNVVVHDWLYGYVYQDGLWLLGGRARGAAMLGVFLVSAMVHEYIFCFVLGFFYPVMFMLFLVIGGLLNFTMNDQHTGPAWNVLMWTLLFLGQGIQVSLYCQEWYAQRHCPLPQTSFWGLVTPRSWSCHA
Assay: not given
Settings: not given

In order of rising IC50:
1. CCCCCCCCCCCCCCCC(=O)Nc1c(C)ccc2c1OCCC2=O [Ex. 18]  7.8 nM
2. CCCCCCCCCCC(C)(C)C(=O)Nc1c(OC)ccc2c1OCCC2=O [Ex. 2, N-(7-Methoxy-4-chromanon-8-yl)-2,2-dimethyldodecanamide]  13 nM
3. CCCCCCCCCCC(C)(C)C(=O)Nc1c(OCCC)ccc2c1OCCC2=O [Ex. 48]  14 nM
4. COc1ccc2c(c1NC(=O)C(C)(C)CCCCCCBr)OCCC2=O [Ex. 37, N-(7-methoxy-4-chromanon-8-yl)-2,2-dimethyl-8-bromooctaneamide]  25 nM
5. COc1ccc2c(c1NC(=O)C(C)(C)CCCCCCOc1ccc(C)cc1)OCCC2=O [Ex. 40]  43 nM
6. COc1ccc2c(c1NC(=O)C(C)(C)CCCCCCc1ccccc1)OCCC2=O [Ex. 38]  44 nM
7. Cc1ccc2c(c1NC(=O)C(C)(C)CCCCOc1ccc(C(C)(C)C)cc1)OCCC2=O [Ex. 30]  50 nM
8. COc1ccc2c(c1NC(=O)C(C)(C)CCCCCOc1ccc(Cl)cc1)OCCC2=O [Ex. 41]  52 nM
9. Cc1ccc2c(c1NC(=O)C(C)(C)CCCCCCOCC(C)(C)C)OCCC2=O [Ex. 28]  54 nM
10. COc1ccc2c(c1NC(=O)C(C)(C)CCCCCCOc1ccc(Cl)cc1)OCCC2=O [Ex. 42]  64 nM
11. CCCCCCCCCCCCNC(=O)Nc1c(C)ccc2c1OCCC2=O [Ex. 1, 1-Dodecyl-3-(7-methyl-4-chromanon-8-yl)urea]  73 nM
12. COc1ccc2c(c1NC(=O)C(C)(C)CCCCCCOc1ccc(N(C)C)cc1)OCCC2=O [Ex. 55, N-(7-Methoxy-4-chromanon-8-yl)-2,2-dimethyl-8-p-dimethylaminophenoxyoctaneamide]  81 nM
13. Cc1cc(C)c2c(c1NC(=O)C(C)(C)CCCCCCOCC(C)C)OCCC2=O [Ex. 43]  90 nM
14. CCCCCCCCCCC(C)(C)C(=O)Nc1c(Cl)ccc2c1OCCC2=O [Ex. 47]  150 nM
15. COc1ccc2c(=O)ccoc2c1NC(=O)C(C)(C)CCCCCOc1ccc(Cl)cc1 [Ex. 52]  160 nM
16. CCCCCCCCCCC1(C(=O)Nc2c(C)ccc3c2OCCC3=O)CCCC1 [Ex. 20]  170 nM
17. COc1ccc2c(c1NC(=O)C(C)(C)CCCCCCOc1ccc(Cl)cc1)C(=O)CCO2 [Ex. 45]  180 nM
18. COc1ccc2c(=O)ccoc2c1NC(=O)C(C)(C)CCCCOc1ccc(C(C)(C)C)cc1 [Ex. 51]  190 nM
19. Cc1ccc2c(c1NC(=O)C(C)(C)CCCCCCOCCCC(C)C)OCCC2=O [Ex. 29]  200 nM
20. CCCCCCCCCCC(C)(C)C(=O)Nc1c(C)ccc2c1OCCC2=O [Ex. 19]  210 nM
21. Cc1ccc2c(c1NC(=O)C(C)(C)CCCCCc1ccccc1)OCCC2=O [Ex. 25]  250 nM
22. CCCCCCCCCCC1(C(=O)Nc2c(OC)ccc3c(=O)ccoc23)CCCC1 [Ex. 50]  270 nM
23. CCCCCCCCCCCCNC(=O)Nc1c(OC)ccc2c(=O)ccoc12 [Ex. 10]  330 nM
24. CCCCCCCCCCCCNC(=O)Nc1c(OC)ccc2c1OCCC2(C)C [Ex. 3]  340 nM
25. Cc1ccc2c(c1NC(=O)C(C)(C)CCCCOCCCC(C)C)OCCC2=O [Ex. 26]  340 nM
26. Cc1cc(C)c2c(c1NC(=O)C(C)(C)CCCCCOc1ccc(Cl)cc1)OCCC2=O [Ex. 44]  400 nM
27. Cc1ccc2c(c1NC(=O)C(C)(C)CCCCCOc1ccc(Cl)cc1)OCCC2=O [Ex. 32]  470 nM
28. COc1ccc(C2(CNC(=O)Nc3c(C)ccc4c3OCCC4=O)CCCC2)cc1 [Ex. 7]  500 nM
29. Cc1ccc2c(c1NC(=O)C(C)(C)CCCCOc1ccc(Cl)cc1)OCCC2=O [Ex. 31]  510 nM
30. Cc1ccc2c(c1NC(=O)NCC1(c3ccccc3)CCCC1)OCCC2=O [Ex. 6]  530 nM
31. COc1ccc2c(c1NC(=O)NCC1(c3ccccc3)CCCC1)OCCC2(C)C [Ex. 4]  690 nM
32. CCCCCCCCCCC(C)(C)C(=O)Nc1c(OC)ccc2c(=O)cc(CC)oc12 [Ex. 54]  780 nM
33. CCCCCCCCCCC1(C(=O)Nc2ccc(OC)c3c2OCCC3(C)C)CCCC1 [Ex. 13]  1200 nM

Same assay, conditions: read-out: ACAT Inhibitory Activity, IC50; rabbit intestinal mucosa microsome, [1-14C] oleoyl CoA, 37° C.

`CCCCCCCCCCCCCCC(C)(C)C(=O)Nc1c(OC)ccc2c(=O)ccoc12` [Ex. 49] gave an IC50 of 52 nM.
